Measured values from patent US20230405003A1, “APPLICATION OF THYMIDINE DERIVATIVE IN PREPARATION OF DRUGS” (ONQUALITY PHARMACEUTICALS CHINA LTD., priority 2020, published 2023).
Where two headings read alike, the source gives them in different places.

Columns and labels:
[1] = system: hand-foot syndrome caused by capecitabine in Balb/c mice; assay: Mouse model of hand-foot syndrome caused by capecitabine, gel application or oral administration; assay type: in vivo; settings: Mus musculus, 192 h, capecitabine 1000 mg/kg once daily, oral 200 mpk twice per day, 8 days
Protocol: A mouse animal model was established. 6-week aged male Balb/c mice were administered with capecitabine by daily gavage. After a few days, mice's paws developed hand-foot syndrome symptoms (similar to the results of the rat model, such as, in FIG. 13). Similar to the human body, mice developed hand-foot syndrome in the forepaws and hind paws after oral administration of capecitabine. The causes of the two are the same, and the disorder is also very similar. Therefore, mice are very good animal models for simulating the hand-foot syndrome caused by capecitabine.
After Balb/c mice were fed and adapted for one week (about 20 g), the mice were divided into groups, with 10 mice in each group. Then, the mice were subject to gavage administration. Capecitabine was dissolved in normal saline with pH=8, and the gavage dose was not greater than 0.3 mL at each time. After gavage, the blank gel was applied to the forepaws and the hind paws (about 4*0.5 cm*0.5 cm) in group of blank gel, and gels containing different drugs were applied to the forepaws and the hind paws (about 4*0.5 cm*0.5 cm) in group of administration. After application, the mice were fixed in Elizabethan collar for 4 hours. After 4 hours, the mice were released, wiped with clean water to remove any residual drug at the application site, and allowed back to the cage. The gavage and application tests are repeated daily until the group of blank has developed obvious hand-foot syndrome. […] Additionally, the thymidine derivative and the combination of thymidine derivative and uridine derivative were orally administered for observing the relief of the hand-foot syndrome. In examples 41-48, thymidine derivative and/or uridine derivative were/was applied, and in examples 49-52, thymidine derivative and/or uridine derivative were/was administered orally.
Table 5 lists the combinations of animal experiments of capecitabine and thymidine derivative (or a combination of thymidine derivative and uridine derivative) and the corresponding experimental results (wherein the data in the column of control rate=the occurrence rate of hand-foot syndrome in group of blank—the occurrence rate of hand-foot syndrome in group of administration).
The effect of thymidine derivative or a combination of thymidine derivative and uridine derivative on a mouse model with chemotherapeutic drug (capecitabine)-induced hand-foot syndrome was tested according to the method in Examples 41-52. Wherein, the drugs were administered transdermally for Examples 119-120 and orally for Examples 121-123.
The test thymidine derivative or the combination of thymidine derivative and uridine derivative, as well as the final concentration of the test compounds were shown in Table 9. Table 9 lists the combinations of animal experiments of capecitabine and the thymidine derivative gel (or a compounded gel of thymidine derivative and uridine derivative) and the corresponding experimental results (wherein the data in the column of control rate=the occurrence rate of hand-foot syndrome in Group of blank—the occurrence rate of hand-foot syndrome in Group of administration).

[2] = system: HaCaT cells; assay: Relief of 5-FU proliferative toxicity to HaCaT cells (CCK-8 cell survival); assay type: cell-based; settings: for Cell Survival Rate (increased percentage of cell survival compared with the Group of 5-FU): 5-Fu 20 μM, HaCaT cells
Protocol: The cultured skin cell HaCaTs were digested, counted, and inoculated into a 96-well plate with 5000-10000 cells in each well. After 24 h of culture, the wells were divided into Group of blank solvent control, Group of 5-FU, Group of 5-FU+thymidine derivative, Group of 5-FU+the combination of thymidine derivative and uridine derivative. […] adding a solution of 5-FU and a solution of thymidine derivative (the final concentrations of 5-FU and thymidine derivative are shown in Table 3, the solution of thymidine is an aqueous solution, while the solutions of thymidine derivatives are all DMSO solutions); Group of 5-FU+the combination of thymidine derivative and uridine derivative: adding a solution of 5-FU and a mixed solution of thymidine derivative and uridine derivative (the final concentrations of the solution of 5-FU and the mixed solution of thymidine derivative+uridine derivative are shown in Table 3, the solution of thymidine is an aqueous solution, while the mixed solutions of thymidine derivative+uridine derivative are all DMSO solutions); Group of blank solvent control: adding the same type of solution as those of the corresponding Group of 5-FU or Group of 5-FU+thymidine derivative (or the mixed solution of thymidine derivative+uridine derivative) in equal volume. Group of blank solvent control was used as control to exclude the influence of the solvents in Group of 5-FU and Group of 5-FU+thymidine derivative (or the mixed solution of thymidine derivative+uridine derivative) on the results. After additional 48 hours of culture, a Cell Counting Kit-8 (CCK-8) detection kit (C0037, purchased from Shanghai Beyotime Biotechnology) is used to determine the cell survival rate, thereby calculating the proliferative toxicity of 5-Fu/5-DFUR on cells and the relieving effect of the thymidine derivative (or the mixed solution of thymidine derivative+uridine derivative) on the proliferative toxicity. Using GraphPad Prism 6.0 software, the results were statistically analyzed by t-test and plotted.
(§1) Table 3 lists the combinations of 5-FU and thymidine derivative (or the mixed solution of thymidine derivative+uridine derivative), and the corresponding experimental results (wherein the data in the column of cell survival indicate the corresponding increased percentage of the cell survivals of Group of 5-FU+thymidine derivative or Group of 5-FU+the combination of thymidine derivative and uridine derivative compared with the Group of 5-FU). FIGS. 3-10 list the experimental results of several representative compounds.
The effect of thymidine derivative or a combination of thymidine derivative and uridine derivative on relieving the proliferative toxicity of a chemotherapeutical drug (5-FU) to HaCaT cells was tested according to the method in Examples 2-29. The test thymidine derivative or the combination of thymidine derivative and uridine derivative, as well as the final concentration of the test compounds were shown in Table 7.
as §1, with “7” for “3”, “15-21” for “3-10”, “exemplary” for “representative”

[3] = system: 5-FU-induced diarrhea in Balb/c mice; assay: 5-FU-induced diarrhea mouse model (175 mg/kg single i.p.); assay type: in vivo; settings: 5-FU 175 mg/kg single i.p.; for Survival Rate / Average Diarrhea Grade: 6 days; for Average Diarrhea Grade: score 0-4
Protocol: 7-8-week-old male Balb/c mice were used to establish a 5-FU induced diarrhea model to test the effect of the thymidine derivative or the combination of thymidine derivative and uridine derivative on the relief of diarrhea.
Modeling dose of 5-Fu: 175 mg/kg; single administration, intraperitoneal injection (ip.);
Administration mode of the compound to test (thymidine derivative or combination of thymidine derivative and uridine derivative): single administration, by gavage, advance administration of the compound to test at various time points prior to intraperitoneal injection of 5-FU. The compound to test was administered 1 h prior to the administration of 5-FU, a certain amount of 5-FU was injected intraperitoneally 1 h later, and the compound to test was administered once again 7 h after the injection of 5-FU.
The mice were fed and adapted for one week, and then divided into groups, with 10 mice in each group for administration test.
The mice in the Group of blank was injected with 0.9% NaCl, and evaluated the effect by observing the change of diarrhea grade, food uptake, and weight change. The severity of diarrhea was scored in accordance with the following standards: 0: normal feces, 1: soft feces, 2: slightly wet, soft feces, 3: wet, unformed feces, with moderate coloration in perianal region, 4: watery feces with heavy coloration of hair in perianal region. The severity of diarrhea was evaluated by occurrence scores of various grades of diarrhea (Scores 0 to 4) and average score of diarrhea. […] The models were stable, and satisfied the experimental requirements.
5-FU was dissolved in a 0.9% NaCl solution, the mice in the model group and the treatment group were all i.p. injected at a dose of 175 mg/kg/d, […]. While modeling of injection administration of 5-FU, the thymidine derivative or the combination of thymidine derivative and uridine derivative was administered by gavage, and the compounds to test were dissolved in a PBS solution containing 5% DMSO+1% HPMC. Body weight was weighed daily to count the weight change (Δ % BW, the weight changes recorded in the table were the values on Day 6), and the food was weighed daily to calculate the food uptake. The mice were daily observed for their clinical status, e.g., activity, diarrhea, hair, fighting, etc. After 6 days, the experiments were completed and statistically analyzed for the results.

[4] = selected compound final concentration 0.8 μM
[5] = selected compound final concentration 1.6 μM
[6] = selected compound final concentration 3.13 μM
[7] = selected compound final concentration 6.25 μM
[8] = selected compound final concentration 12.5 μM
[9] = selected compound final concentration 25 μM
[10] = selected compound final concentration 50 μM

Row | Structure (SMILES) | Cell Survival Rate (increased percentage of cell survival compared with the Group of 5-FU) [2, 4] | Cell Survival Rate (increased percentage of cell survival compared with the Group of 5-FU) [2, 5] | Cell Survival Rate (increased percentage of cell survival compared with the Group of 5-FU) [2, 6] | Cell Survival Rate (increased percentage of cell survival compared with the Group of 5-FU) [2, 7] | Cell Survival Rate (increased percentage of cell survival compared with the Group of 5-FU) [2, 8] | Cell Survival Rate (increased percentage of cell survival compared with the Group of 5-FU) [2, 9] | Cell Survival Rate (increased percentage of cell survival compared with the Group of 5-FU) [2, 10] | Δ % BW (on Day 6) ([3]; 15 mpk gavage) | Survival Rate ([3]; 15 mpk gavage) [%] | Average Diarrhea Grade ([3]; 15 mpk gavage) | other results
1 | CCCC(=O)OC[C@H]1O[C@@H](n2cc(C)c(=O)[nH]c2=O)C[C@@H]1OC(=O)CCC [T6, ((2R,3S,5R)-3-(butyryloxy)-5-(5-methyl-2,4-dioxo-3,4-dihydropyrimidin-1(2H)-yl)tetrahydrofuran-2-yl)methyl Butyrate] |  |  |  |  |  |  |  |  |  |  | inhibition in vivo at 200 mg/kg ([1]; read-out: Control Rate Forepaws): 65%; inhibition in vivo at 200 mg/kg ([1]; read-out: Control Rate Hindpaws): 77.5%; activation at 1 µM ([2]; Homo sapiens, HaCaT, increase vs Group of 5-FU, 5-FU 20 μM, compound 1 μM, 48 h, read-out: Cell Survival Rate): 27 to 34%; activation at 5 µM ([2]; Homo sapiens, HaCaT, increase vs Group of 5-FU, 5-FU 20 μM, compound 5 μM, 48 h, read-out: Cell Survival Rate): 40 to 48%; activation at 10 µM ([2]; Homo sapiens, HaCaT, increase vs Group of 5-FU, 5-FU 20 μM, compound 10 μM, 48 h, read-out: Cell Survival Rate): 55 to 65%; activation at 50 µM ([2]; Homo sapiens, HaCaT, increase vs Group of 5-FU, 5-FU 20 μM, compound 50 μM, 48 h, read-out: Cell Survival Rate): 65 to 75%; activation at 100 µM ([2]; Homo sapiens, HaCaT, increase vs Group of 5-FU, 5-FU 20 μM, compound 100 μM, 48 h, read-out: Cell Survival Rate): 68 to 75%; activation at 200 µM ([2]; Homo sapiens, HaCaT, increase vs Group of 5-FU, 5-FU 20 μM, compound 200 μM, 48 h, read-out: Cell Survival Rate): 85 to 95%
2 | Cc1cn([C@H]2C[C@H](O)[C@@H](COC(=O)C(C)c3cccc(C(=O)c4ccccc4)c3)O2)c(=O)[nH]c1=O (stereo partly shown) [T33] | 36%-42% | 37%-44% | 39%-49% | 36%-42% | 55%-63% | 64%-71% | 66%-73% |  |  |  | Cell Survival Rate (increased percentage of cell survival compared with the Group of 5-FU) ([2]; selected compound final concentration 100 μM): 55%-63%; Δ % BW (on Day 6) ([3]; 50 mpk gavage): 4.18% ± 0.56%; Survival Rate ([3]; 50 mpk gavage): 100%; Average Diarrhea Grade ([3]; 50 mpk gavage): 1
3 | CCC(CC)COC(=O)[C@H](C)N[P@](=O)(OC[C@H]1O[C@@H](n2cc(C)c(=O)[nH]c2=O)C[C@@H]1O)Oc1ccccc1 [T48] | 26%-34% | 38%-46% | 41%-48% | 66%-73% | 68%-76% | 77%-85% | 69%-76% | −1.97% ± 0.67% | 100 | 1.3 | 
4 | CCC(CC)COC(=O)[C@H](C)N[P@@](=O)(Oc1ccccc1)O[C@H]1C[C@H](n2cc(C)c(=O)[nH]c2=O)O[C@@H]1CO [T49] | 35%-42% | 56%-63% | 72%-79% | 68%-74% | 36%-44% |  |  | −1.97% ± 0.67% | 80 | 0.75 | 
